Measured values published in patent US20260262643A1, “HERBICIDAL BENZOXAZINES” (FMC CORPORATION, priority 2022, published 2026).

Assays:
[1] = tested on: horseweed; test: Test C postemergence; assay type: in vivo, Erigeron canadensis; conditions: 10 days, 0 to 100 scale (0 no effect, 100 complete control)
How it was run: (§1)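 Greenhouse herbicide screen, 10-day duration. Test chemicals in solvent/surfactant blend were sprayed onto soil at sowing (pre) or onto 2–10 cm seedlings at one to two leaves (post); injury scored visually against controls, 0 no effect to 100 complete control.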

[2] = tested on: soybean; test: Test C preemergence; assay type: in vivo, Glycine max
How it was run: as §1

[3] = tested on: pigweed, palmer; test: Test C preemergence; assay type: in vivo, Amaranthus palmeri
How it was run: as §1

[4] = tested on: ragweed; test: Test C postemergence; assay type: in vivo, Ambrosia artemisiifolia; conditions: 10 days, 0 to 100 scale (0 no effect, 100 complete control)
How it was run: as §1

[5] = tested on: foxtail, giant; test: Test C preemergence; assay type: in vivo, Setaria faberi
How it was run: as §1

[6] = tested on: oat, wild; test: Test C preemergence; assay type: in vivo, Avena fatua
How it was run: as §1

[7] = tested on: kochia; test: Test C postemergence; assay type: in vivo, Bassia scoparia; conditions: 10 days, 0 to 100 scale (0 no effect, 100 complete control)
How it was run: as §1

[8] = tested on: barnyardgrass; test: Test D flooded paddy test; assay type: in vivo, Echinochloa crus-galli; conditions: 250 g ai/ha, applied to paddy water, visual rating after 13 to 14 days, scale 0 to 100 (0 no effect, 100 complete control)
How it was run: (§2)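 At the 2-leaf stage, floodwater 3 cm deep received the test compound; that depth persisted throughout. Plants scored visually 13 to 14 days on, 0 (no effect) to 100 (complete control), dash indicating no result.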

[9] = tested on: ryegrass, Italian; test: Test C postemergence; assay type: in vivo, Lolium multiflorum; conditions: 10 days, 0 to 100 scale (0 no effect, 100 complete control)
How it was run: as §1

[10] = tested on: soybean; test: Test C postemergence; assay type: in vivo, Glycine max; conditions: 10 days, 0 to 100 scale (0 no effect, 100 complete control)
How it was run: as §1

[11] = tested on: rice; test: Test D flooded paddy test; assay type: in vivo, Oryza sativa; conditions: 250 g ai/ha, applied to paddy water, visual rating after 13 to 14 days, scale 0 to 100 (0 no effect, 100 complete control)
How it was run: as §2

[12] = tested on: corn; test: Test C preemergence; assay type: in vivo, Zea mays
How it was run: as §1

[13] = tested on: wheat; test: Test C preemergence; assay type: in vivo, Triticum aestivum
How it was run: as §1

[14] = tested on: ryegrass, Italian; test: Test C preemergence; assay type: in vivo, Lolium multiflorum
How it was run: as §1

[15] = tested on: pigweed, palmer; test: Test C postemergence; assay type: in vivo, Amaranthus palmeri; conditions: 10 days, 0 to 100 scale (0 no effect, 100 complete control)
How it was run: as §1

[16] = tested on: ragweed; test: Test C preemergence; assay type: in vivo, Ambrosia artemisiifolia
How it was run: as §1

[17] = tested on: barnyardgrass; test: Test C postemergence; assay type: in vivo, Echinochloa crusgalli; conditions: 10 days, 0 to 100 scale (0 no effect, 100 complete control)
How it was run: as §1

[18] = tested on: ducksalad; test: Test D flooded paddy test; assay type: in vivo, Heteranthera limosa; conditions: 250 g ai/ha, applied to paddy water, visual rating after 13 to 14 days, scale 0 to 100 (0 no effect, 100 complete control)
How it was run: as §2

[19] = tested on: galium; test: Test C postemergence; assay type: in vivo, Galium aparine; conditions: 10 days, 0 to 100 scale (0 no effect, 100 complete control)
How it was run: as §1

[20] = tested on: corn; test: Test C postemergence; assay type: in vivo, Zea mays; conditions: 10 days, 0 to 100 scale (0 no effect, 100 complete control)
How it was run: as §1

[21] = tested on: kochia; test: Test C preemergence; assay type: in vivo, Bassia scoparia
How it was run: as §1

[22] = tested on: barnyardgrass; test: Test C preemergence; assay type: in vivo, Echinochloa crusgalli
How it was run: as §1

[23] = tested on: blackgrass; test: Test C preemergence; assay type: in vivo, Alopecurus myosuroides
How it was run: as §1

[24] = tested on: sedge, umbrella; test: Test D flooded paddy test; assay type: in vivo, Cyperus difformis; conditions: 250 g ai/ha, applied to paddy water, visual rating after 13 to 14 days, scale 0 to 100 (0 no effect, 100 complete control)
How it was run: as §2

[25] = tested on: oat, wild; test: Test C postemergence; assay type: in vivo, Avena fatua; conditions: 10 days, 0 to 100 scale (0 no effect, 100 complete control)
How it was run: as §1

[26] = tested on: blackgrass; test: Test C postemergence; assay type: in vivo, Alopecurus myosuroides; conditions: 10 days, 0 to 100 scale (0 no effect, 100 complete control)
How it was run: as §1

[27] = tested on: foxtail, giant; test: Test C postemergence; assay type: in vivo, Setaria faberi; conditions: 10 days, 0 to 100 scale (0 no effect, 100 complete control)
How it was run: as §1

[28] = tested on: wheat; test: Test C postemergence; assay type: in vivo, Triticum aestivum; conditions: 10 days, 0 to 100 scale (0 no effect, 100 complete control)
How it was run: as §1

[29] = 500 g ai/ha, preemergence, 0 to 100 scale (0 no effect, 100 complete control)
[30] = Preemergence, 125 g ai/ha, 0 to 100 scale, 0 no effect, 100 complete control

Question: How did the “Plant response rating, Horseweed” value ([1]; 500 g ai/ha, postemergence) turn out when `CCc1ncn(-c2cccc(C(=O)N3CC(C(F)(F)F)Oc4c(Cl)cccc43)c2)n1` (stereo not shown) [Compound 345] was run?
Answer: 30

Question: What about the “Plant response rating, Horseweed” value ([1]; Postemergence, 125 g ai/ha) of the same molecule?
Answer: 0

Question: What about the “Soybean plant response rating” value [2, 29] of the same molecule?
Answer: 100

Question: And the “Plant response rating, Soybean” value [2, 30]?
Answer: 30

Question: And the “Pigweed, Palmer plant response rating” value [3, 29]?
Answer: 100

Question: What about the “Plant response rating, Pigweed, Palmer” value [3, 30] of the same molecule?
Answer: 100

Question: What about the “Plant response rating, Ragweed” value ([4]; 500 g ai/ha, postemergence) of the same molecule?
Answer: 60

Question: What about the “Plant response rating, Ragweed” value ([4]; Postemergence, 125 g ai/ha) of the same molecule?
Answer: 40

Question: What about the “Foxtail, Giant plant response rating” value [5, 29] of the same molecule?
Answer: 100

Question: What about the “Plant response rating, Foxtail, Giant” value [5, 30] of the same molecule?
Answer: 90

Question: What about the “Oat, Wild plant response rating” value [6, 29] of the same molecule?
Answer: 80

Question: What about the “Plant response rating, Oat, Wild” value [6, 30] of the same molecule?
Answer: 10

Question: And the “Plant response rating, Kochia” value ([7]; 500 g ai/ha, postemergence)?
Answer: 90

Question: And the “Plant response rating, Kochia” value ([7]; Postemergence, 125 g ai/ha)?
Answer: 80

Question: What about the “Plant response rating, Barnyardgrass (Flood)” value [8] of the same molecule?
Answer: 40

Question: What about the “Plant response rating, Ryegrass, Italian” value ([9]; 500 g ai/ha, postemergence) of the same molecule?
Answer: 80

Question: And the “Plant response rating, Ryegrass, Italian” value ([9]; Postemergence, 125 g ai/ha)?
Answer: 60

Question: And the “Plant response rating, Soybean” value ([10]; 500 g ai/ha, postemergence)?
Answer: 100

Question: And the “Plant response rating, Soybean” value ([10]; Postemergence, 125 g ai/ha)?
Answer: 100

Question: And the “Plant response rating, Rice (Flood)” value [11]?
Answer: 10

Question: What about the “Corn plant response rating” value [12, 29] of the same molecule?
Answer: 30

Question: What about the “Plant response rating, Corn” value [12, 30] of the same molecule?
Answer: 10

Question: What about the “Wheat plant response rating” value [13, 29] of the same molecule?
Answer: 10

Question: And the “Plant response rating, Wheat” value [13, 30]?
Answer: 0

Question: And the “Ryegrass, Italian plant response rating” value [14, 29]?
Answer: 90

Question: And the “Plant response rating, Ryegrass, Italian” value [14, 30]?
Answer: 80

Question: And the “Plant response rating, Pigweed, Palmer” value ([15]; 500 g ai/ha, postemergence)?
Answer: 80

Question: And the “Plant response rating, Pigweed, Palmer” value ([15]; Postemergence, 125 g ai/ha)?
Answer: 60

Question: And the “Ragweed plant response rating” value [16, 29]?
Answer: 0

Question: What about the “Plant response rating, Ragweed” value [16, 30] of the same molecule?
Answer: 0

Question: And the “Plant response rating, Barnyardgrass” value ([17]; 500 g ai/ha, postemergence)?
Answer: 60

Question: And the “Plant response rating, Barnyardgrass” value ([17]; Postemergence, 125 g ai/ha)?
Answer: 30

Question: And the “Plant response rating, Ducksalad (Flood)” value [18]?
Answer: 65

Question: What about the “Plant response rating, Galium” value ([19]; 500 g ai/ha, postemergence) of the same molecule?
Answer: 100

Question: And the “Plant response rating, Galium” value ([19]; Postemergence, 125 g ai/ha)?
Answer: 100

Question: And the “Plant response rating, Corn” value ([20]; 500 g ai/ha, postemergence)?
Answer: 80

Question: And the “Plant response rating, Corn” value ([20]; Postemergence, 125 g ai/ha)?
Answer: 30

Question: And the “Kochia plant response rating” value [21, 29]?
Answer: 100

Question: And the “Plant response rating, Kochia” value [21, 30]?
Answer: 50

Question: What about the “Barnyardgrass plant response rating” value [22, 29] of the same molecule?
Answer: 100

Question: What about the “Plant response rating, Barnyardgrass” value [22, 30] of the same molecule?
Answer: 60

Question: And the “Blackgrass plant response rating” value [23, 29]?
Answer: 90

Question: And the “Plant response rating, Blackgrass” value [23, 30]?
Answer: 80

Question: What about the “Plant response rating, Sedge, Umbrella (Flood)” value [24] of the same molecule?
Answer: 60

Question: What about the “Plant response rating, Oat, Wild” value ([25]; 500 g ai/ha, postemergence) of the same molecule?
Answer: 30

Question: What about the “Plant response rating, Oat, Wild” value ([25]; Postemergence, 125 g ai/ha) of the same molecule?
Answer: 20

Question: What about the “Plant response rating, Blackgrass” value ([26]; 500 g ai/ha, postemergence) of the same molecule?
Answer: 90

Question: What about the “Plant response rating, Blackgrass” value ([26]; Postemergence, 125 g ai/ha) of the same molecule?
Answer: 50

Question: And the “Plant response rating, Foxtail, Giant” value ([27]; 500 g ai/ha, postemergence)?
Answer: 90

Question: What about the “Plant response rating, Foxtail, Giant” value ([27]; Postemergence, 125 g ai/ha) of the same molecule?
Answer: 60

Question: And the “Plant response rating, Wheat” value ([28]; 500 g ai/ha, postemergence)?
Answer: 30

Question: And the “Plant response rating, Wheat” value ([28]; Postemergence, 125 g ai/ha)?
Answer: 20
